As usually defined, the IC50 is the midpoint of a concentration-inhibition curve. As usually defined, the EC50 is the concentration giving half of the maximal effect.

The target in test [1] is pFGFR4 in MDA-MB-453 cells (Homo sapiens (Human), UniProt P22455, Y367C). The test is described as follows: Washout experiment (duration of pFGFR4 inhibition). To be noted: 1000-2000 nM for 1 hr, washed, up to 24 hr. Format: cell-based. Here is the method: The cells were allowed to settle down for 4 hrs and were then maintained in low-serum (0.1% FBS) media overnight.
pFGFR4 in MDA-MB-453 cells, sequence (P22455 22-802 Y367C): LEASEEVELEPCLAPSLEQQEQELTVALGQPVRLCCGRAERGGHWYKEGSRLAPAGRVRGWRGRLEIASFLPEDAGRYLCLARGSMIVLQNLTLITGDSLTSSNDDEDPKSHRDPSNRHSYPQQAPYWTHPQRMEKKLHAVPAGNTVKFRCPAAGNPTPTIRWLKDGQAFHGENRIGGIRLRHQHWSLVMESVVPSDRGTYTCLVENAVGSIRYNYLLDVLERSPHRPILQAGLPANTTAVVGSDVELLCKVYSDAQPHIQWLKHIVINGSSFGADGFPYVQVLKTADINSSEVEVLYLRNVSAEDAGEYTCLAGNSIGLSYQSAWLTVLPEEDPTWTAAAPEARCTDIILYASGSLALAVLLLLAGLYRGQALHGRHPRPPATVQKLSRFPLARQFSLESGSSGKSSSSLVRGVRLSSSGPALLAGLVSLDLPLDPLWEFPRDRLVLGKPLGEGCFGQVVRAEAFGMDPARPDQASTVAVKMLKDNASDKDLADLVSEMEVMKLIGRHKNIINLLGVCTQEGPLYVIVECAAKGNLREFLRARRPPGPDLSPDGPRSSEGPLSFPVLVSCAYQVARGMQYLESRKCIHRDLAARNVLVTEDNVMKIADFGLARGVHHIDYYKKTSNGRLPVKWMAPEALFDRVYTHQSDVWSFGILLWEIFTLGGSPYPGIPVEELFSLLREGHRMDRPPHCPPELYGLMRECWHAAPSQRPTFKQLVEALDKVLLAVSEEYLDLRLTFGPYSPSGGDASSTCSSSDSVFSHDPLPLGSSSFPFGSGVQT
The following morning, the media was removed and the cells were treated with 1000-2000 nM of test compound in low-serum media for 1 hr. The cells were washed free of test compound (3×) with PBS (Invitrogen). One set of cells was immediately lysed as indicated above as the 0 hr time point. The remaining cells were incubated with the appropriate complete growth media (10-20% FBS) for 1, 2, 4, 8, 16 (in certain circumstances) and 24 hr. DMSO (0.5%) controls were collected at all time points.

Test [2] relates to MDA-MB-453 cells. The test is described as follows: Cell proliferation, MDA-MB-453 (CellTiter Glo). It is filed as cell-based. To be noted: 96 hr. Here is the method: (§1) The growth inhibition (GI50) values were determined by Graph Pad Prism.
(In general: In ATP-based viability assays light output follows the ATP content of the culture.)

The target in test [3] is FGFR4-WT (Homo sapiens (Human), UniProt P22455). The test is described as follows: Omnia assay for potency against FGFR4 enzyme. The following applies: method a: FGFR4-WT (Invitrogen) 10 nM, ATP 300 uM, Y10-Sox 10 uM. It is filed as biochemical. Here is the method: A 10× stock solution of FGFR4-WT (PR4380C or P3054), (from Invitrogen, Carlsbad, Calif.) corresponding to method a in Table 10, was prepared as described below. Alternatively, a 10× stock solution of FGFR4-WT (F01-11G), (SignalChem, Richmond, BC) corresponding to method b in Table 10, was prepared as described below. A solution of 1.4×ATP (AS001A) and 5× Tyr-Sox conjugated peptide substrate (KNZ3101) were prepared in 1× kinase reaction buffer consisting of 20 mM Tris, pH 7.5, 5 mM MgCl2, 1 mM EGTA, 5 mM […], 5% glycerol (10× stock, KB002A) and 0.2 mM DTT (DS001A). […] The serially diluted compounds were prepared on a Tecan EVO100. A second addition of 10 μl of Tyr-Sox FGFR4 substrate was added to each well and the kinase reactions were started with the addition of 35 μL of 1.4×ATP. The reactions were monitored every 71 seconds for 240 minutes at λex360/λem485 in a Synergy plate reader from BioTek (Winooski, Vt.). […] Methods:
a) [FGFR4-WT]=10 nM, [ATP]=300 uM, [Y10-Sox]=10 uM (ATP KMapp−300 uM),

In test [4] the test system is Huh7 cells. The test is described as follows: Cell proliferation, Huh7 (CellTiter Glo). Format: cell-based. Here is the method: as §1
For test [5], the target named is pFGFR4 (Huh7 cells) (Homo sapiens (Human), UniProt P22455). The test is described as follows: FGFR4 signaling (pFGFR4) in Huh7 cells (MSD). It is filed as cell-based. To be noted: read-out: Signaling EC50 (nM) pFGFR4 (Huh).
pFGFR4 (Huh7 cells), sequence (P22455 22-802): as the sequence (P22455 22-802 Y367C) above, with C346Y counted along it
Where [6] appears, read: 120 hr, read-out: Cell Proliferation GI50 (nM) HUH.

“Also recorded” adds a separate entry of the source. Where two headings read alike, the source gives them in different places.

FGFR4-WT, sequence (P22455 22-802): as the sequence (P22455 22-802 Y367C) above, with C346Y counted along it

For the molecule `C=CC(=O)NC1CCCCC1Nc1ncc2c(n1)N(Cc1cscn1)C(=O)N(c1c(Cl)c(OC)cc(OC)c1Cl)C2` (racemic) [Compound I-69], in test [1], the “duration of action against pFGFR4 signalling after washout” value was “prolonged duration of action; also recorded: prolonged inhibition of autophosphorylation of FGFR4”.
On the same count and under the same terms, under `C=CC(=O)Nc1ccccc1Nc1ncc2c(n1)N(Cc1cccc(NC(=O)CC)c1)C(=O)N(c1c(Cl)c(OC)cc(OC)c1Cl)C2` [Compound I-1] stands “has PDA; also recorded: prolonged duration of action”.
On the same count and under the same terms, for `CCC(=O)Nc1cccc(CN2C(=O)N(c3c(Cl)c(OC)cc(OC)c3Cl)Cc3cnc(Nc4ccccc4NC(=O)CC)nc32)c1` [Compound I-234] the value was “does not have PDA; also recorded: does not show prolonged duration of action”.
`C=CC(=O)N[C@H]1COC[C@H]1Nc1ncc2cc(-c3c(Cl)c(OC)cc(OC)c3Cl)c(=O)n(C)c2n1` [Compound I-241]: in test [2] (Homo sapiens), the GI50 is < 100 nM.
As to `C=CC(=O)Nc1cc(N2CCN(CC)CC2)ccc1Nc1ncc2cc(-c3c(Cl)c(OC)cc(OC)c3Cl)c(=O)n(C)c2n1` [Compound I-269], the GI50 in test [2] (Homo sapiens) was < 100 nM; in test [4] (Homo sapiens, Huh-7, 120 hr), 101 to 500 nM. For the same molecule, the IC50 in test [3] was < 100 nM. Moreover, the concentration giving a half-maximal response (EC50) in test [5] was < 100 nM.
On to `C=CC(=O)Nc1cc(-c2nnnn2C)ccc1Nc1ncc2cc(-c3c(Cl)c(OC)cc(OC)c3Cl)c(=O)n(C)c2n1` [Compound I-276], for which the GI50 in test [2] (Homo sapiens) is < 100 nM; in test [4] (Homo sapiens, Huh-7, 120 hr), 101 to 500 nM. Also, the IC50 in test [3] is < 100 nM. Moreover, the EC50 in test [5] is < 100 nM.
Consider `C=CC(=O)N[C@H]1COC[C@H]1Nc1ncc2cc(-c3c(F)c(OC)cc(OC)c3Cl)c(=O)n(C)c2n1` [Compound I-279], for which the GI50 in test [2] (Homo sapiens) was < 100 nM; in test [4] (Homo sapiens, Huh-7, 120 hr), < 100 nM.
`C=CC(=O)N[C@H]1COC[C@H]1Nc1ncc2cc(-c3c(F)c(OC)cc(OC)c3F)c(=O)n(C)c2n1` [Compound I-281]: the GI50 is 101 to 500 nM in test [2] (Homo sapiens) and < 100 nM in test [4] (Homo sapiens, Huh-7, 120 hr).
Take `C=CC(=O)Nc1ccc(F)c(F)c1Nc1ncc2cc(-c3c(Cl)c(OC)cc(OC)c3Cl)c(=O)n(C)c2n1` [Compound I-285]: the GI50 in test [2] and in test [4] (setting [6]) was < 100 nM throughout. The IC50 in test [3] was < 100 nM. Moreover, in test [5], the EC50 is < 100 nM.
For the molecule `C=CC(=O)Nc1ccccc1Nc1ncc2cc(-c3c(Cl)c(OC)cc(OC(F)F)c3Cl)c(=O)n(C)c2n1` [Compound I-289], the GI50 in test [2] was < 100 nM; in test [4] (setting [6]), 501 to 999 nM. Further, the IC50 in test [3] is < 100 nM. Moreover, in test [5], the EC50 is < 100 nM.
For the molecule `C=CC(=O)N[C@H]1COC[C@H]1Nc1ncc2cc(-c3c(Cl)c(OC)cc(OC)c3Cl)c(=O)nc-2n1CCO` [Compound I-303], in test [3], the IC50 is < 100 nM. Moreover, in test [4] (setting [6]), the GI50 is 101 to 500 nM. Also, in test [5], the EC50 is < 100 nM.
Turning to `C=CC(=O)N[C@H]1COC[C@H]1Nc1ncc2cc(-c3c(Cl)c(OC)cc(OC)c3Cl)c(=O)n(C[C@@H]3CCN(C(C)=O)C3)c2n1` [Compound I-307], the IC50 in test [3] is < 100 nM. In addition, in test [4] (Homo sapiens, Huh-7, 120 hr), the GI50 is 101 to 500 nM. Besides, in test [5], the EC50 was < 100 nM.
In the case of `C=CC(=O)N[C@H]1COC[C@H]1Nc1ncc2cc(-c3cc(OC)cc(OC)c3Cl)c(=O)n(CC3CCN(C(C)=O)C3)c2n1` (stereo partly drawn) [Compound I-308], in test [3], the IC50 is < 100 nM. In addition, the GI50 in test [4] (setting [6]) was in the range of 101 to 500 nM. The EC50 in test [5] was < 100 nM.

The values above are taken from patent publication US10618902B2, “Substituted pyrido[2,3-d]pyrimidines as inhibitors of protein kinases” (Celgene CAR LLC, priority 2013, dated 2020).
